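Following 48 hours of exposure in 96-well plates, responses at five concentrations were used to interpolate endpoints linearly. GI50 is the concentration that inhibits growth by half. TGI denotes the concentration required for complete inhibition of growth.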
Legend:
Test in all cases: growth of human tumour cells (NCI), 48 h
A549 NSCLC = tested on: A549 NSCLC
RXF 393 renal = tested on: RXF 393 renal
SF-268 CNS = tested on: SF-268 CNS
SK-MEL-28 melanoma = tested on: SK-MEL-28 melanoma
HOP-62 NSCLC = tested on: HOP-62 NSCLC
NCI-H460 lung = tested on: NCI-H460 lung
CAKI-1 renal = tested on: CAKI-1 renal
SR leukemia = tested on: SR leukemia
ACHN renal = tested on: ACHN renal
HCC-2998 colon = tested on: HCC-2998 colon

SMILES | GI50 (A549 NSCLC) | TGI (A549 NSCLC) | GI50 (RXF 393 renal) | TGI (RXF 393 renal) | GI50 (SF-268 CNS) | TGI (SF-268 CNS) | GI50 (SK-MEL-28 melanoma) | TGI (SK-MEL-28 melanoma) | GI50 (HOP-62 NSCLC) | TGI (HOP-62 NSCLC) | GI50 (NCI-H460 lung) | TGI (NCI-H460 lung) | GI50 (CAKI-1 renal) | TGI (CAKI-1 renal) | GI50 (SR leukemia) | TGI (SR leukemia) | GI50 (ACHN renal) | TGI (ACHN renal) | GI50 (HCC-2998 colon) | TGI (HCC-2998 colon)
COc1ncnc(NS(=O)(=O)c2ccc(N=C3C(=O)N(CN4CCN(c5c(F)cc6c(=O)c(C(=O)O)cn(C7CC7)c6c5OC)CC4C)c4ccc(Cl)cc43)cc2)c1OC (configuration not stated) | 21.2 µM | > 50 µM | 10.8 µM | 39.6 µM | 10.7 µM | > 50 µM | 26.1 µM | > 50 µM | 23.4 µM | > 50 µM | 11 µM | > 50 µM | 6.44 µM | 26.1 µM | 5.3 µM | > 50 µM | 7.17 µM | 20.6 µM |  | 
ClCc1cccc(Cn2cnc3ncnc(Cl)c32)c1 | 17.2 µM | 39.6 µM | 2.02 µM | 17.4 µM | 1.66 µM | 3.5 µM | 1.81 µM | 3.52 µM | 2.17 µM | 3.99 µM | 2.09 µM | 4.45 µM | 2.12 µM | 4.04 µM |  |  | 1.88 µM | 3.53 µM | 1.68 µM | 3.25 µM
O=S1(=O)OCCOS(=O)(=O)C1Br |  | > 100 µM |  |  |  | > 100 µM |  | > 100 µM |  | > 100 µM |  |  |  | > 100 µM |  | > 100 µM |  |  |  | > 100 µM
C[Si](C)(C)C1(Sc2ccccc2)SCCCS1 |  | > 100 µM |  | > 100 µM |  | > 100 µM |  | > 100 µM |  | 76.4 µM |  | > 100 µM |  | > 100 µM |  |  |  | > 100 µM |  | > 100 µM
O=C1c2cc3c(cc2-c2c1c1ccc(F)cc1c(=O)n2CCCNCCO)OCO3 | 0.0339 µM | 0.188 µM | 0.1 µM | 0.322 µM | 0.0537 µM | 1.16 µM | 0.329 µM | 1.77 µM | 0.0366 µM | 0.496 µM | 0.0219 µM | 0.204 µM | 0.0628 µM | 1.44 µM |  |  | 0.0247 µM | 0.104 µM | 0.0537 µM | 0.272 µM
OCCCCCNCc1cc2cc3c(cc2c2cc(OCc4ccccc4)ccc12)OCO3 | 1.55 µM | 2.89 µM | 1.04 µM | 2.2 µM |  |  | 1.82 µM | 3.23 µM | 1.72 µM | 3.23 µM |  |  | 1.77 µM | 3.74 µM |  |  | 1.58 µM | 2.93 µM |  | 
OC(c1nc2ccccc2[nH]1)C(O)C(O)C(O)c1nc2ccccc2[nH]1 (configuration not stated) |  | > 100 µM |  | > 100 µM |  | > 100 µM |  | > 100 µM |  | > 100 µM |  | > 100 µM |  | > 100 µM |  | > 100 µM |  | > 100 µM |  | 
C=C(Br)C(C)(Br)CCC(Br)C(C)(C)Cl (configuration not stated) |  | > 100 µM |  | 37.5 µM |  | 36.1 µM |  | 33.3 µM |  | 39.4 µM |  | 36.6 µM |  |  |  | 27.9 µM |  | 35.6 µM |  | 32.7 µM
CCN1CCN(c2nc(C)cc(N(CCNc3ccnc4cc(Cl)ccc34)Cc3ccc4c(c3)OCO4)n2)CC1 | 2.4 µM | 8.19 µM | 1.44 µM | 3.08 µM | 2.09 µM | 5.81 µM | 1.79 µM | 3.42 µM | 2.21 µM | 11.5 µM | 1.94 µM | 4.7 µM |  |  | 1.33 µM | 3.71 µM | 2.26 µM | 5.26 µM | 2.03 µM | 3.96 µM
Cc1cc(-c2ccc3nc(C4CCOCC4)n(CCOC(F)(F)F)c3c2)cn(C)c1=O | 0.48 µM |  | 0.885 µM | 6.34 µM | 1.65 µM | 80.2 µM |  |  |  |  | 1.06 µM |  |  |  | 0.597 µM | 13.4 µM |  |  |  | 
CCOC(=O)c1cc2nc3ccccc3c(=O)n2c2ccccc12 |  | > 10 µM |  | > 10 µM |  | > 10 µM |  | > 10 µM |  | > 10 µM |  | > 10 µM |  | > 10 µM |  |  |  | > 10 µM |  | > 10 µM
CC(=O)[C@@]12O[C@@H]1CC1C3CCC4=CC(O)CCC4(C)C3CCC12C (some centres not stated) | 72.7 µM | > 100 µM | 28.6 µM | 65.6 µM | 83.5 µM | > 100 µM | 69.4 µM | > 100 µM |  |  | 70.8 µM | > 100 µM | > 100 µM | > 100 µM | > 100 µM | > 100 µM | 44.9 µM | > 100 µM |  | 
Cc1ccc(S(=O)(=O)Nc2ccccc2C(=O)c2ccc(C)c(C)c2)cc1 |  | > 100 µM |  | > 100 µM |  | > 100 µM |  | > 100 µM |  | > 100 µM |  | > 100 µM |  | > 100 µM |  |  |  | > 100 µM |  | 
O=C(/C=C/c1ccncc1)c1cc(Cl)ccc1O | 23 µM | 53.2 µM | 18.3 µM | 33.1 µM | 22.1 µM | 63.7 µM | 22.6 µM | 47.5 µM | 18.3 µM | 43.8 µM | 15.5 µM | 34.7 µM | 14.3 µM | 38.5 µM |  |  | 23.9 µM | 60 µM | 13.5 µM | 28.4 µM
CC1=CC(O)(c2ccc(-c3ccccc3Cl)cc2)OC1=O (configuration not stated) |  | > 100 µM |  | > 100 µM |  | > 100 µM |  | > 100 µM |  | > 100 µM |  | > 100 µM |  | > 100 µM |  |  |  | > 100 µM |  | > 100 µM
CC(C)=Cc1cc(C(=O)Nc2ccc(Cl)c(Cl)c2)nc(N)n1 |  | > 100 µM |  | > 100 µM |  | > 100 µM |  | > 100 µM |  | > 100 µM |  | > 100 µM |  | > 100 µM |  |  |  | > 100 µM |  | > 100 µM
CCN1c2ccccc2C(C(SC)S(=O)(=O)c2ccc(C)cc2)c2c1[nH]c(=O)n(C)c2=O (configuration not stated) |  | > 100 µM |  |  |  | > 100 µM |  | > 100 µM |  | > 100 µM |  |  |  | > 100 µM |  |  |  |  |  | > 100 µM
CCOC(=O)CC(=O)ON(C)C(C)=O |  | > 100 µM |  |  |  | > 100 µM |  |  |  | > 100 µM |  | > 100 µM |  | > 100 µM |  | > 100 µM |  | > 100 µM |  | > 100 µM
COc1cc(C2c3cc4c(cc3OC(C)(O)C2C)OCO4)cc(OC)c1OC (configuration not stated) |  | 0.761 µM |  |  |  | > 100 µM |  |  |  | > 100 µM |  | > 100 µM |  | > 100 µM |  | 14.2 µM |  | > 100 µM |  | > 100 µM

Reference: PubChem BioAssay (NCI)
